Experimental data from patent publication US12371404B2, “Fused bicyclic alkylene linked imidodicarbonimidic diamides, methods for synthesis, and uses in therapy” (NovaTarg, Inc., priority 2016, dated 2025).
Structures can show the parent of a compound that is named as a salt. Where two headings read alike, the source gives them in different places.

What was measured:
human OCT2 = target: T1, human OCT2 (Homo sapiens, UniProt O15244); assay: Oxygen consumption rate (OCR) assay, HEK293 cells transfected with OCT2; conditions: HEK293 cells stably transfected with human OCT2; MitoXpress Xtra, 2 hours
T1 sequence (O15244 1-555): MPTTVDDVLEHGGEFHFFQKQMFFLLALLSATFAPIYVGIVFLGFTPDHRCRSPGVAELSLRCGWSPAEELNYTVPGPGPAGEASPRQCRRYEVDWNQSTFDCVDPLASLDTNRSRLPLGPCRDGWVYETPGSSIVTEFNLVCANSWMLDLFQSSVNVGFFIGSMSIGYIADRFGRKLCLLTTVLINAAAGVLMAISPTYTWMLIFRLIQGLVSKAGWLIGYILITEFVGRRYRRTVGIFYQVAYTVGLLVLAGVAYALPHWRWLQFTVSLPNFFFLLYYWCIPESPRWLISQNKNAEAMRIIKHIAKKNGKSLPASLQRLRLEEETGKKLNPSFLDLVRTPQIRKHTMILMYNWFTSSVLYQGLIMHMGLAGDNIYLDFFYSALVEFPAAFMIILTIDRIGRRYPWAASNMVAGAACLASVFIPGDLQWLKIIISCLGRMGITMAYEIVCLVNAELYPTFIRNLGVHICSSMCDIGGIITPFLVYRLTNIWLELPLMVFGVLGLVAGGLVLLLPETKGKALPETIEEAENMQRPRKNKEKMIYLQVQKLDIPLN
Excerpt: (§1) Diabetologia 2011, 54 (12): 3101-3110, each incorporated by reference with regard to such testing. The compounds of the present invention are similarly tested in an oxygen consumption rate (OCR) assay to evaluate the functional activity of test compounds in cells.
(§2) In brief, the assay uses HEK293 cells stably transfected with the human OCT1, OCT2, OCT3, PMAT, or MATE1 transporters to determine a compound's relative transporter selectivity and its effect on the rate of oxygen consumption relative to control (Neo) cells. The MitoXpress Xtra oxygen-sensitive fluorophore is used to monitor oxygen consumption rates in the presence and absence of compound treatments. The analogs were tested at eight (8) different concentrations in triplicate to determine a relative IC50 value.
(§3) A summary description of the protocol is as follows:
HEK293 cells transformed with human organic cation transporters were plated in collagen coated, 96-well black-walled microclear plates (Greiner-Bio 1, #655956) at 60,000 cells per well in growth medium (DMEM (LG), 10% FBS, 400 μg/ml G418). Cells were incubated overnight to allow attachment. The outer columns (1 and 12) are not seeded with cells, as controls. The next day, plating medium was removed and replaced with 150 μL of assay medium (DMEM/F12 (PRF), 5% FBS, antibiotics) containing compound dilutions. A 3-fold serial dilution was prepared in the assay medium and transferred to the empty wells. The outer columns and column 11 received 150 μL of assay medium only. […] Dual read time-resolved fluorescence (BMG FluoStar Galaxy reader) was measured over 2 hours with measurements taken every 2 minutes. […] Background TRF values from A1-D1 were subtracted from all readings. A ratiometric analysis was performed to determine changes in the Lifetime fluorescence signal:Lifetime (μs) [T]=(D2−D1)/ln(W1/W2), where D is delay; W is fluorescence window value at each time point. Lifetime slopes were calculated using each Lifetime measurement over time. IC50 values were determined by plotting lifetime slope values vs. compound concentration.

control (Neo) cells = assay: Oxygen consumption rate (OCR) assay, control (Neo) HEK293 cells; type: cell-based; conditions: Homo sapiens, read-out: Oxygen Consumption Rate (OCR) IC50, Neo
human PMAT = target: T2, human PMAT (Homo sapiens, UniProt Q7RTT9); assay: Oxygen consumption rate (OCR) assay, HEK293 cells transfected with PMAT; type: cell-based
T2 construct: expressed in transfected cells; host or cells: HEK293
T2 sequence (Q7RTT9 1-530): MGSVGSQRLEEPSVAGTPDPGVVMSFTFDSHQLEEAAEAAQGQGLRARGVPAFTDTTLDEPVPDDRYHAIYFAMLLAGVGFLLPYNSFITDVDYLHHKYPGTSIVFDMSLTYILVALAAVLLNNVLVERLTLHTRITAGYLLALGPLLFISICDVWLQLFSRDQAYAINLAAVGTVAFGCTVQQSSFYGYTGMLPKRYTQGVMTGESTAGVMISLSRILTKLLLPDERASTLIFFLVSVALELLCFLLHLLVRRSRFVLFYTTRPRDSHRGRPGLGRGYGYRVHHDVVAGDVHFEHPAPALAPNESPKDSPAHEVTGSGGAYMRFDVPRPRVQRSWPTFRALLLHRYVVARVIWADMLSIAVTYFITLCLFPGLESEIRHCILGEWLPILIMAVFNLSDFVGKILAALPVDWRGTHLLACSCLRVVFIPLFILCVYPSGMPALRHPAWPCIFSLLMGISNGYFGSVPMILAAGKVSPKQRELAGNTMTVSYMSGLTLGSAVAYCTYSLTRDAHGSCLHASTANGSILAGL
Excerpt: as §1, §2, §3
HEK293 cells transformed with human organic cation transporters were plated in collagen coated, 96-well black-walled microclear plates (Greiner-Bio 1, #655956) at 60,000 cells per well in growth medium (DMEM (LG), 10% FBS, 400 μg/ml G418). Cells were incubated overnight to allow attachment. The outer columns (1 and 12) are not seeded with cells, as controls. The next day, plating medium was removed and replaced with 150 μL of assay medium (DMEM/F12 (PRF), 5% FBS, antibiotics) containing compound dilutions. A 3-fold serial dilution was prepared in the assay medium and transferred to the empty wells. The outer columns and column 11 received 150 μL of assay medium only. 10 μL of MitoXpress Xtra reagent was added to each test well, and 100 μL of pre-warmed mineral oil was overlayed in each well to create a seal. Dual read time-resolved fluorescence (BMG FluoStar Galaxy reader) was measured over 2 hours with measurements taken every 2 minutes. Excitation is 340 nm, Emission is 650 nm. For lifetime analysis, two measurements per well were taken: 1) delay of 30 μs, with a window of 30 μs; and 2) delay of 70 μs with a window of 30 μs. Background TRF values from A1-D1 were subtracted from all readings. A ratiometric analysis was performed to determine changes in the Lifetime fluorescence signal:Lifetime (μs) [T]=(D2−D1)/ln(W1/W2), where D is delay; W is fluorescence window value at each time point. Lifetime slopes were calculated using each Lifetime measurement over time. IC50 values were determined by plotting lifetime slope values vs. compound concentration.

[1] = T2D patients treated with metformin, retrospective studies; cited from earlier work
[2] = diabetic cancer patients taking metformin during neoadjuvant chemotherapy; versus 8% not receiving metformin, P=0.007; cited from earlier work
[3] = diabetic patients receiving metformin; cited from earlier work
[4] = NASH, dose up to 1 g twice daily (BID); cited from earlier work
human MATE1 = target: T3, human MATE1 (Homo sapiens, UniProt Q96FL8); assay: Oxygen consumption rate (OCR) assay, HEK293 cells transfected with MATE1
T3 sequence (Q96FL8 1-570): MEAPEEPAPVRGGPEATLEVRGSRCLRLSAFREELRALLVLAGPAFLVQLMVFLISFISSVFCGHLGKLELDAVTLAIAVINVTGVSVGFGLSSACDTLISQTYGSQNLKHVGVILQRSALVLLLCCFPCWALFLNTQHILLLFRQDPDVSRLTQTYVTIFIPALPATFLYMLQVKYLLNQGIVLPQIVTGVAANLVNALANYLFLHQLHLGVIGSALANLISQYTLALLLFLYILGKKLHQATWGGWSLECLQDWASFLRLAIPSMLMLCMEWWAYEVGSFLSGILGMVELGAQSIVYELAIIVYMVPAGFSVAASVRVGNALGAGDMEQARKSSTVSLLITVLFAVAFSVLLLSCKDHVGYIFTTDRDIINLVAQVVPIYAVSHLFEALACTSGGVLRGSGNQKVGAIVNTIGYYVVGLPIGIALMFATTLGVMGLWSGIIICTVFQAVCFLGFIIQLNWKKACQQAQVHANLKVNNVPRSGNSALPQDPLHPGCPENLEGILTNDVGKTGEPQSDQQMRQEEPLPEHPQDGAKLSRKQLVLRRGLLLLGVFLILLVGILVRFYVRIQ

Row | SMILES | Oxygen Consumption Rate (OCR) IC50, OCT 2 (human OCT2) | IC50 (control (Neo) cells; HEK293, 2 h) | IC50 (human PMAT) | IC50 (control (Neo) cells; control (Neo) HEK293 cells, MitoXpress Xtra, 2 hours) | IC50 (human PMAT; HEK293 cells stably transfected with human PMAT, MitoXpress Xtra, 2 hours, read-out: Oxygen Consumption Rate (OCR) IC50, PMAT) | reduced cancer burden than patients on other treatments [1] | pathological complete response rate [2] | decrease in breast cancer compared with those on other therapies [3] | patients with improvement in liver pathology and ALT [4] | IC50 (human MATE1)
1 | N=C(N)NC(=N)NCCc1c[nH]c2cccc(F)c12 [Ex 26, 1-[2-(4-fluoro-1H-indol-3-yl)ethyl]imidodicarbonimide diamide, trifluoroacetic acid salt] | 2 µM | 90 µM | 2 µM | – | – | – | – | – | – | –
2 | CN(C)C(=N)NC(=N)N [Metformin] | – | – | – | > 3000 µM | 288 µM | ~40% | 24% | 56% | 30% | –
3 | N=C(N)NC(=N)NCCc1c[nH]c2c(F)cccc12 [Ex 3, 1-[2-(7-fluoro-1H-indol-3-yl)ethyl]imidodicarbonimide diamide] | 7 µM | 677 µM | 4 µM | – | – | – | – | – | – | 20 µM
4 | N=C(N)NC(=N)NCCc1c[nH]c2cc(F)ccc12 [Ex 11, 1-[2-(6-fluoro-1H-indol-3-yl)ethyl]imidodicarbonimide Diamide Trifluoroacetic Acid Salt] | 12 µM | 214 µM | 3 µM | – | – | – | – | – | – | 57 µM
